Reference: US20030018008A1, “Formulations of adenosine a1 agonists” (priority 1999, published 2003)

Test system: carrageenan-induced oedema and allodynia
Assay: Carrageenan model: weight bearing (allodynia) and paw oedema of the inflamed hind paw
Format: in vivo, rat
Settings: for % Weight on inflammed paw (Allodynia): 3 h after intraplantar 2% carrageenan, 50% = no pain; for % Inhibition of carrageenan-induced allodynia / % Inhibition of carrageenan-induced oedema: compared to vehicle control; for % Inhibition of carrageenan-induced oedema: plethysmometer
Experimental: Carrageenan model for (2S, 3S, 4R, 5R)-2-(5 tert-butyl-[1,3,4]oxadiazol-2-yl)-5-[6-(4-chloro-2-fluoro-phenylamino)-purin-9-yl]-tetrahvdro-furan-3,4-diol (Adenosine A1 agonist) and alosetron.
Male Random Hooded rats (180-220 g) were used. The test compound or vehicle was administered 30 mins before the 2nd test compound or vehicle. The test compounds and vehicles used were: (i) Compound A in 1% DMSO, 66% Peg400, 33% distilled water and (ii) alosetron in saline. Both test compounds were administered via the oral route. After a further 30 mins 100 ul of 2% carrageenan was injected intraplantar into the left hind paw and the animals were then returned to their cages. Three hours later, behavioural testing of the carrageenan-induced decrease in weight on the inflamed left hind paw (% weight on the inflammed left hind paw) and associated oedema was assessed. Weight bearing was measured using the dual channel weight averager and paw oedema was assessed using a plethysmometer. The dual channel weight averager is commercially available and is described in the following abstract: Validation of the dual channel weight averager as an instrument for the measurement of inflammatory pain, N. M. Clayton et al., 1997 British Journal Pharmacol. 120, 219P.
Note: In the absense of pain, weight on the hind paws would be evenly distributed, i.e. 50% on each hind paw.
Note: Oedema is the presence of abnormally large amounts of fluid in the intercellular tissue spaces of the body and in the present example is used to provide a measure of inflammation (or anti-oedemic). Allodynia is a sensation of pain resulting from a non-injurious stimulus such as normal heat, cold or pressure on skin and in the present example the weight-bearing (allodynia) effect in used to provide a measure of analgesia.

Row | SMILES | % Weight on inflammed paw (Allodynia) (Alosetron 0.3 mg/kg oral) | % Inhibition of carrageenan-induced allodynia (Alosetron 0.3 mg/kg oral) | % Inhibition of carrageenan-induced oedema (Alosetron 0.3 mg/kg oral) | % Weight on inflammed paw (Allodynia) (Compound A 0.4 mg/kg oral) | % Inhibition of carrageenan-induced allodynia (Compound A 0.4 mg/kg oral) | % Inhibition of carrageenan-induced oedema (Compound A 0.4 mg/kg oral)
1 | Cc1[nH]cnc1CN1CCc2c(c3ccccc3n2C)C1=O [Alosetron, 2,3,4,5-tetrahydro-5-methyl-2-[(5-methyl-1H-imidazol-4-yl)methyl]-1H-pyrido[4,3-b]indol-1-one] | 33.6 ± 5.5% | 45.1 ± 18.4% | 28.2 ± 6.3% |  |  | 
2 | CC(C)(C)c1nnc([C@H]2O[C@@H](n3cnc4c(Nc5ccc(Cl)cc5F)ncnc43)[C@H](O)[C@@H]2O)o1 [Compound A, (2S, 3S, 4R, 5R)-2-(5 tert-butyl-[1,3,4]oxadiazol-2-yl)-5-[6-(4-chloro-2-fluoro-phenylamino)-purin-9-yl]-tetrahydro-furan-3,4-diol] |  |  |  | 20.7 ± 4.3% | 2.1 ± 14.3% | −3.1 ± 8.2%
